Measured values reported in ChEMBL document CHEMBL5724696, “Autophagy assay results for EUbOPEN Chemogenomics Library” (2024).
Where “and” joins values, the source holds several entries; their conditions need not be identical. Identical values can stand only once.

What was measured:
Assay type in all cases: functional, Homo sapiens
[1] = test system: U2OS; test: (§1) Here: values are normalized to the negative (DMSO; defined as 0% autophagy induction) and positive (250nM Torin1; mTOR inhibitor; defined as maximal inducer of autophagy = 100%) control compounds and represented as % of autophagy induction. […] The impact of autophagy induction on cells is complex and depends on the affected target. As such, the magnitude of a phenotype may not be equally mirrored in the %-value of autophagy induction and vice versa. The dynamics of the induction may indicate the mode of activation: e.g. activation via phosphorylation or a signaling cascade may occur fast, while activation via transcription factors may take considerably longer. […] Of note, treatment concentrations may be sub-optimal for specific compounds, leading to false negative annotations.; details: Culturing Media DMEM, 1 % Penicillin/Streptomycin, 10% Fetal bovin serum Add-On: No, Screening Media Control DMEM, Screening Media Samples DMEM
[2] = test system: TERT-RPE1; test: as §1; details: Culturing Media DMEM/F12 (1:1), 1 % Penicillin/Streptomycin, 10% Fetal bovin serum Add-On: No, Screening Media Control DMEM/F12 (1:1), Screening Media Samples DMEM/F12 (1:1)
[3] = test system: U2OS; test: as §1; details: Culturing Media DMEM, 1 % Penicillin/Streptomycin, 10% Fetal bovin serum Add-On: No, Screening Media Control DMEM, Screening Media Samples DMEM; remark: listed apart in the source
[4] = Compound Concentration 0.5 uM, Timepoint 12 hours
[5] = Compound Concentration 0.5 uM, Timepoint 24 hours
[6] = Compound Concentration 0.5 uM, Timepoint 36 hours
[7] = Compound Concentration 0.5 uM, Timepoint 60 hours
[8] = Compound Concentration 2 uM, Timepoint 12 hours
[9] = Compound Concentration 2 uM, Timepoint 24 hours
[10] = Compound Concentration 2 uM, Timepoint 36 hours
[11] = Compound Concentration 2 uM, Timepoint 60 hours
[12] = Compound Concentration 10 uM, Timepoint 12 hours
[13] = Compound Concentration 10 uM, Timepoint 24 hours
[14] = Compound Concentration 10 uM, Timepoint 36 hours
[15] = Compound Concentration 10 uM, Timepoint 60 hours

| Compound | autophagy induction [1, 4] | autophagy induction [1, 5] | autophagy induction [1, 6] | autophagy induction [1, 7] | autophagy induction [1, 8] | autophagy induction [1, 9] | autophagy induction [1, 10] | autophagy induction [1, 11] | autophagy induction [1, 12] | autophagy induction [1, 13] | autophagy induction [1, 14] | autophagy induction [1, 15] | autophagy induction [3, 4] | autophagy induction [3, 5] | autophagy induction [3, 6] | autophagy induction [3, 7] | autophagy induction [3, 8] | autophagy induction [3, 9] | autophagy induction [3, 10] | autophagy induction [3, 11] | other results |
| --- | --- | --- | --- | --- | --- | --- | --- | --- | --- | --- | --- | --- | --- | --- | --- | --- | --- | --- | --- | --- | --- |
| CCCNS(=O)(=O)Nc1ncnc(OCCOc2ncc(Br)cn2)c1-c1ccc(Br)cc1 | 2.901% | -2.846% | 0.07503% | -9.912% | 12.0444% | 9.078% | 7.396% | -1.934% | 26.4347% | 18.1089% | 17.8738% | 1.732% | -3.964% | -4.032% | -61.3535% | -1.132% | -0.4685% | -1.227% | -59.7666% | -0.5161% | autophagy induction ([2]; Compound Concentration 0.5 uM, Timepoint 12 hours, 12 h, 0.5 µM): -0.7197% and -7.3982%; autophagy induction ([2]; Compound Concentration 0.5 uM, Timepoint 24 hours, 24 h, 0.5 µM): 0.659% and -8.96%; autophagy induction ([2]; Compound Concentration 0.5 uM, Timepoint 36 hours, 36 h, 0.5 µM): -3.018% and -8.201%; autophagy induction ([2]; Compound Concentration 0.5 uM, Timepoint 60 hours, 60 h, 0.5 µM): -5.286% and -10.1731%; autophagy induction ([2]; Compound Concentration 2 uM, Timepoint 24 hours, 24 h, 2 µM): -0.7464% and 17.5664%; autophagy induction ([2]; Compound Concentration 2 uM, Timepoint 36 hours, 36 h, 2 µM): -1.802% and 12.9792%; autophagy induction ([2]; Compound Concentration 2 uM, Timepoint 60 hours, 60 h, 2 µM): -3.01% and 8.651%; autophagy induction ([2]; Compound Concentration 10 uM, Timepoint 12 hours, 12 h, 10 µM): -3.714% and 17.3261%; autophagy induction [3, 12]: 11.7925%; autophagy induction [3, 13]: 5.282%; autophagy induction [3, 14]: -57.2377%; autophagy induction [3, 15]: -0.5877% |
| CNc1nc(NCc2ccc(NS(C)(=O)=O)cc2Cl)cc(-c2ccccn2)n1 | 14.6542% | 1.484% | 3.538% | 8.159% | 23.6541% | 10.7985% | 11.9727% | 23.1222% | 27.3974% | 31.2749% | 36.9575% | 46.6456% | -4.8332% | -1.906% | -1.0253% | -0.2766% | -0.6465% | 0.2341% | -0.0484% | 0.9042% | autophagy induction [2, 4]: -1.3719%; autophagy induction [2, 5]: -4.63%; autophagy induction [2, 6]: -8.2685%; autophagy induction [2, 7]: -4.377%; autophagy induction [2, 8]: 1.95%; autophagy induction [2, 9]: -3.372%; autophagy induction [2, 10]: -5.053%; autophagy induction [2, 11]: 1.232%; autophagy induction [2, 12]: 14.7912%; autophagy induction [2, 13]: 21.0269%; autophagy induction [2, 14]: 30.7963%; autophagy induction [2, 15]: 56.217%; autophagy induction [3, 12]: -8.81%; autophagy induction [3, 13]: -3.343%; autophagy induction [3, 14]: -3.38%; autophagy induction [3, 15]: -6.97% |
